Experimental data from patent US4678750A, “Method and compositions for use in the treatment of fireblight” (Microlife Technics, Inc., priority 1984, dated 1987).

Tested on: depolymerase from phage-infected E. amylovora NCPPB595
Experiment: Effect of chemical agents on depolymerase activity (galactose release from polysaccharide)
Type: biochemical, phage ERA103 / Erwinia amylovora NCPPB595
Conditions: for Effect of agent on depolymerase activity (in words): Table 2; for Activity % Control: control assay without inhibitors
Protocol: Depolymerase activity was assayed by following the release of galactose from the polysaccharide substrate according to the method of Fairbridge (Fairbridge,R. A., et al. Biochem. J. 49:423-427 (1951)). The reaction mixture consisted of the following: 100 microliters of the appropriate enzyme solution and 100 microliters of polysaccharide (10 mg/ml) suspended in 0.01M citrate buffer, pH 6.0 containing 0.01M 2-mercaptoethanol. One unit of enzyme was defined as the amount of enzyme required to produce 1 micromole of galactose per minute under standard assay conditions.
Substrate Preparation. Polysaccharide was prepared from uninfected cultures of Erwinia amylovora NCPPB595 cultivated on sheets of cellophane overlaying Tryptic Soy agar, as decribed by Liu (Liu, P.V., et al., J. Infect. Dis. 108:218-228 (1961)). The polysaccharide was extracted from the slime layer according to the method of Liu.
The effect of various chemical agents on depolymerase activity can be seen in Table 2.

[1] = agent 10.0 millimoles per liter

Row | Compound | Effect of agent on depolymerase activity (in words) | Activity % Control (agent 0.1 millimoles per liter) [% Control] | Activity % Control (agent 1.0 millimoles per liter) [% Control] | Activity % Control [1] [% Control]
1 | OCCS [2-Mercaptoethanol] | enhanced depolymerase activity substantially | 122 | 155 | 168
2 | Oc1cccc2cccnc12 [8-hydroxyquinoline] | insensitive |  |  | 
3 | OC(CS)C(O)CS (centres unmarked) [Dithiothreitol, 1,4 dimercapto-2,3-butanediol] | enhanced depolymerase activity substantially | 122 | 138 | 258
4 | O=C(O)CI [Iodoacetate] | no efect on enzymatic activity | 100 | 100 | 100
5 | CCN1C(=O)C=CC1=O [N--ethylmaleimide, N-ethylmaleimide] | no efect on enzymatic activity | 100 | 100 | 100
6 | [N-]=[N+]=[N-] [Sodium azide] | insensitive | 100 | 100 | 100
7 | O=C(O)c1cc[c]([Hg][Cl])cc1 [p-Chloromercuribenzoate] | inhibited the enzyme at all concentrations tested | 0 | 0 | 0
8 | ethylene-di-(o-hydroxyphenylacetate) | insensitive | 100 | 100 | 100
